Values of other authors in patent US20230167447A1, “Compositions for FNIP1/FNIP2 Gene Modulation and Methods Thereof” (Genetic Intelligence, Inc, priority 2021, published 2023).

Tested on: ALS patients

CC1=NN(c2ccccc2)C(=O)C1 [Edaravone, edaravone]
decline in physical function in ALS patients: slows the decline in physical function | subset of patients for which effective: around 7%
